Literature values as cited in patent USRE38623E1, “Stabilization of ascorbic acid, ascorbic acid derivatives and/or extracts containing ascorbic acid for topical use” (Topix Pharmaceuticals, Inc., priority 1996, dated 2004).
Where two headings read alike, the source gives them in different places.

In the case of `O=C1O[C@H]([C@@H](O)CO)C(O)=C1O` [L-ascorbic acid], the potency after storage (Darr '043 FIG. 1, after seven weeks, starting from 100 percent, L-ascorbic acid concentration of 1 percent) is listed as 70%, the drop in potency (Darr '043 FIG. 1, seven weeks at room temperature, L-ascorbic concentrations of 3, 5 and 10 percent) is listed as “less than 10%” and the drop in potency (Darr '043 FIG. 1, seven weeks, L-ascorbic acid concentration of 1 percent) is listed as “approximately 30%”. For the same molecule, the lost potency (Darr '043 FIG. 2, all four samples, eight weeks at room temperature, stored in the dark) was ≥ 10%.
